In patent publication US7259161B2, “Compositions useful as inhibitors of JAK and other protein kinases” (Vertex Pharmaceuticals Incorporated, priority 2002, dated 2007) one finds Ki data, which are given here for 2 compounds.

In one assay the target is CDK-2/Cyclin A (Homo sapiens, UniProt P24941). As to the kind of experiment: CDK2 inhibition assay (coupled enzyme assay). The assay is classed as biochemical. Conditions: 100 μM ATP, 25 nM CDK-2/Cyclin A. Here is the method:
Compounds were screened for their ability to inhibit CDK-2/Cyclin A using a standard coupled enzyme assay (Fox et al (1998) Protein Sci 7, 2249). Reactions were carried out in 100 mM HEPES pH 7.5, 10 mM MgCl2, 25 mM NaCl, 1 mM DTT and 1.5% DMSO. Final substrate concentrations in the assay were 100 μM ATP (Sigma chemicals) and 100 μM peptide (American Peptide, Sunnyvale, Calif.). Assays were carried out at 30° C. and 25 nM CDK-2/Cyclin A. Final concentrations of the components of the coupled enzyme system were 2.5 mM phosphoenolpyruvate, 350 μM NADH, 30 μg/ml pyruvate kinase and 10 μg/ml lactate dehydrogenase.
An assay stock buffer solution was prepared containing all of the reagents listed above, with the exception of CDK-2/Cyclin A, DTT and the test compound of interest. 56 μl of the test reaction was placed in a 384 well plate followed by addition of 1 μl of 2 mM DMSO stock containing the test compound (final compound concentration 30 μM). The plate was preincubated for ˜10 minutes at 30° C. and the reaction initiated by addition of 10 μl of enzyme (final concentration 25 nM). Rates of reaction were obtained using a BioRad Ultramark plate reader (Hercules, Calif.) over a 5 minute read time at 30° C. Compounds showing >50% inhibition versus standard wells containing DMSO, but no compound, were titrated and IC50's determined using a similar protocol.

For a further assay, the target named is T1, ZAP-70 (Homo sapiens, UniProt P43403).
T1 sequence (P43403 1-619): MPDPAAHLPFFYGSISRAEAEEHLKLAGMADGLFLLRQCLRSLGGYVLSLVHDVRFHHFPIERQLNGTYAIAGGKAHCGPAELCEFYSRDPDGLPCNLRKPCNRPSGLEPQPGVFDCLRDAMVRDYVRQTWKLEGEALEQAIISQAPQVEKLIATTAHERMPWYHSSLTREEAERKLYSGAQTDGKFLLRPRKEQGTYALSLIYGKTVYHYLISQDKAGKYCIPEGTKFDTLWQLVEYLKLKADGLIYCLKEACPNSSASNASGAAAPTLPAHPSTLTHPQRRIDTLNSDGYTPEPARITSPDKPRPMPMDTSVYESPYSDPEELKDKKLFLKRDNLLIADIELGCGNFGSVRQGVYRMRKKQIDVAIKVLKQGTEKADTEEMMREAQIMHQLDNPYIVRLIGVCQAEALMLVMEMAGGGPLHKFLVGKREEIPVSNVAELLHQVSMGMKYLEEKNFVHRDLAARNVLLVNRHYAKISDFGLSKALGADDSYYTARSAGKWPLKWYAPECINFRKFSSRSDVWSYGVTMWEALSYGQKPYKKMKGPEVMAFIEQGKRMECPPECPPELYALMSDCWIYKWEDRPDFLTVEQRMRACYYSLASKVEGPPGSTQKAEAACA
Description: ZAP-70 inhibition assay (coupled enzyme assay). The assay is classed as biochemical. Conditions: 100 μM ATP, 60 nM ZAP-70. Here is the method:
Compounds were screened for their ability to inhibit ZAP-70 using a standard coupled enzyme assay (Fox et al., Protein Sci., (1998) 7, 2249). Assays were carried out in a mixture of 100 mM HEPES 7.5, 10 mM MgCl2, 25 mM NaCl, 2 mM DTT and 3% DMSO. Final substrate concentrations in the assay were 100 μM ATP (Sigma Chemicals) and 20 μM peptide (poly-4EY, Sigma Chemicals). Assays were carried out at 30° C. and 60 nM ZAP-70. Final concentrations of the components of the coupled enzyme system were 2.5 mM phosphoenolpyruvate, 300 μM NADH, 30 μg/ml pyruvate kinase and 10 μg/ml lactate dehydrogenase.
An assay stock buffer solution was prepared containing all of the reagents listed above, with the exception of ZAP-70 and the test compound of interest. 55 μl of the stock solution was placed in a 96 well plate followed by addition of 2 μl of DMSO stock containing serial dilutions of the test compound (typically starting from a final concentration of 15 μM). […] Initial reaction rates were determined with a Molecular Devices SpectraMax Plus plate reader over a 15 minute time course. IC50 and Ki data were calculated from non-linear regression analysis using the Prism software package (GraphPad Prism version 3.0a for Macintosh, GraphPad Software, San Diego Calif., USA).

In the case of `NS(=O)(=O)c1ccc(Nc2nccc(-c3ccc4c(c3)NC(=O)CO4)n2)cc1` [IVa-23], the Ki at CDK-2/Cyclin A and at ZAP-70 was below 1000 nM each time.
Regarding `CN1C(=O)COc2ccc(-c3ccnc(Nc4ccc(S(N)(=O)=O)cc4)n3)cc21` [IVa-24], the Ki at CDK-2/Cyclin A and on ZAP-70 was below 1000 nM in each case.
